Source: publication PMC6008768, “Physiologically Based Pharmacokinetic Modelling with Dynamic PET Data to Study the In Vivo Effects of Transporter Inhibition on Hepatobiliary Clearance in Mice” (Contrast Media & Molecular Imaging, 2018)
Several values for one entry are separate records, joined by “and”; a condition that tells them apart may be missing. Equal values may be shown once. Read-outs that look alike come from different tables or passages of the source.

Tests used:
[1] = design: method as in PMID 24834996; conditions: cited from earlier work
[2] = In vivo PBPK compartment modelling of dynamic whole-body PET data; design: species or system mice; conditions: for average CLH when kBG was fitted / calculated transintestinal clearance: kBG fitted
Excerpt: C(t) of liver, kidneys, and peripheral tissue and A(t) of gallbladder and intestines were derived from manually drawn volumes of interest according to the PET/CT images, using the VOI functions of PMOD. Regions of interest are shown for a representative scan in Supplementary Figure 1. C(t) data were transformed to A(t) by multiplication with the reported average volume of the respective organ or tissue. These were 0.065 cm^3 per g BW for liver and 0.0164 cm^3 per g BW for kidneys. The volume of the “peripheral tissue” (VTissue) with C(t) determined from the left shoulder was estimated during the fitting procedure. It was 0.74 ± 0.08 cm^3 per g BW for [^11C]MT107 control scans and 0.79 ± 0.10 cm^3/g for [^11C]MT107 scans after cyclosporine treatment, without significant difference (p = 0.47).
A(t) of the individual regions of interest were fitted with custom-written MATLAB scripts (MathWorks, Natick, MA) according to the compartment model shown in Figure 2, using the ode45 function to solve the differential equation system. Tracer input was simulated as a constant input of duration T (A(0)/T). Fitting was performed with the solver fmincon and the function MultiStart with 128 random sets of bounded initial parameters. Calculations were performed by parallel computing on 40 cores of the Euler cluster of ETH Zurich (https://scicomp.ethz.ch/). The initial parameters were best guesses from supervised simulations. Initial lower bounds were 0 for the rate constants of mass transfer (k). For k from plasma to liver and kidneys, the initial upper bounds were set according to the reported values for blood flow, corrected for (1 − hematocrit) to get the plasma flow (QP) divided by the plasma volume (VPlasma = vBlood × (1 − hematocrit) × BW). The QP for liver (QP,H) was 1.0 ml/min and for kidneys (QP,R) 0.73 ml/min.
Figure 2 Model for the pharmacokinetic analysis. A(0) is the dose, and T is the infusion duration (10 s). Initial A(t = 0) for all compartments (indicated by black boxes) were zero. The parameters k are mass transfer rate constants with the unit 1/time. The indices denote the source and target compartments, respectively (e.g., kBH1, k for the mass transfer from blood plasma to hepatic compartment “Liver 1”). A(t) of peripheral tissue was best fit with two sets of rate constants for reversible transfer. The sum of the two plasma-to-tissue rate constants is kBT. Several models were evaluated and the results were visually inspected. […] For [^11C]MT107 scans, kBG (grey arrow) was set to 0. Tissue blood fractions (vBlood multiplied with the organ or tissue volume and CBlood(t)) were added to the compartments where applicable. B, blood plasma; G, gallbladder plus intestine combined; H, liver; R, kidneys; T, peripheral tissue; U, urine.
During the fitting procedure, the sum of weighted squared residuals of all A(t) was minimized. For weighting, the residuals of the first two data points of plasma, liver, and kidney were multiplied with 5, to force the fits through these initial data points. After several rounds, the best estimates with the lowest sum of squared residuals were used per tracer to define the final upper and lower bounds as 0.5-fold the minimal respective fit parameter and 2-fold the highest respective fit parameter per tracer. […] Under these refined conditions, one calculation (one scan) with 128 random sets of initial values required 10–120 min.
CLH was calculated according to (2) CLH=kBH1×kH1H2/kH1B+kH1H2×VPlasma, where the rate constants k are defined in the model in Figure 2. Note that at steady state this equals CLH calculated from kH2G.
The term 1/(1 + kR1R2/kR2R1) corrects for the mass ratio between R1 and the combined R1 and R2.
Total CL was calculated as the sum of CLH and CLR and compared to the CL estimated from the CPlasma(t) biexponential fits (see (1)), as CL = λz × Vz. […]

[3] = design: method as in PMID 24834996; conditions: 30 min after administration; cited from earlier work
[4] = test system: hCD80-positive xenografts; design: method as in PMID 24834996; conditions: previous work; cited from earlier work
[5] = Plasma kinetics: biexponential fit of image-derived CPlasma(t) from dynamic PET; type: in vivo, mice
Description: (§1) For PET/CT acquisition, mice were anaesthetized with 3 to 5% isoflurane in air/oxygen (1 : 1), at a respiratory rate of ~60 per min as described elsewhere. Cyclosporine (50 mg/kg), to inhibit cyclosporine-sensitive transporters, was injected into a tail vein (i.v.), 30 to 50 min before tracer injection while the respective tracer was synthesized. The injected cyclosporine solution was a dilution with water for injection (1 : 1) of Sandimmun® (Novartis Pharmaceuticals, Basel, Switzerland; 50 mg/ml cyclosporine in 26.1% ethanol/65% PEG-35 castor oil). Vehicle (13% ethanol, 2 ml/kg) was injected as a control as indicated. Immediately after radiosynthesis quality control, the tracer was injected i.v. at a dose between 3 and 14 MBq (<20 nmol/kg) in 100 to 200 μL saline containing 5% ethanol. Injections lasted ~10 s. The mouse was transferred to a SuperArgus PET/CT scanner (Sedecal, Madrid, Spain, formerly Vista eXplore) with an axial field of view of 4.8 cm and a spatial resolution of 1.6–1.7 mm (full width at half maximum; [23]). Body temperature and respiratory rate were controlled as previously described. The PET scan was started in List mode 60 s after tracer injection. After 60 min scan duration, computed tomography (CT) data were recorded for anatomical orientation.
The blood C(t) was generated with PMOD from the PET images as follows. A cropped cube of 10 × 10 × 10 mm^3 including the image data of the heart was divided into 12 segments with differing kinetics, using the PSEG module of PMOD. C(t) of the segment covering the left heart ventricle according to the PET (first time frame)/CT images was used as an estimation of the blood C(t) (CBlood(t)). CBlood(t) was divided by (1 − hematocrit) to get CPlasma(t) and fitted to a biexponential infusion function as shown in (1) CPlasmat=A0/T×V1×λ1×V1/Vz−λ1/λ1λz−λ1×1−e^−λ1×tt≤T+Tt>T×e^−λ1×t−Tt>T+λ1×V1/Vz−λz/λzλ1−λz×1−e^−λz×tt≤T+Tt>T×e^−λz×t−Tt>T, where A(0) is the radioactivity dose, T is the duration of the injection (10 s infusion), V1 is the volume of the central compartment (initial volume of distribution of the tracer after injection), Vz is the volume of distribution during the terminal phase, and λ1 and λz are the respective rate constants of the biexponential function and t the time. The term [t(t ≤ T) + T(t > T)] equals t if t ≤ T but T if t > T. The term (t − T)(t > T) equals t − T if t > T, otherwise zero. The hematocrit was assumed 0.44 [25, 26].
Total CL was calculated as the sum of CLH and CLR and compared to the CL estimated from the CPlasma(t) biexponential fits (see (1)), as CL = λz × Vz. The extraction ratio EH for liver was estimated as ratio between CLH and QP,H, with QP,H from Davies and Morris.

[6] = PET images: radioactivity distribution; type: in vivo, mice; conditions: for radioactivity distribution in PET images: control conditions; for change of radioactivity distribution in PET images: cyclosporine 50 mg/kg i.v. before tracer, compared to scans without cyclosporine
Description: as §1
The PET data were reconstructed into 10 or 12 time frames by 2D Fourier rebinning/ordered-subsets expectation maximization (FORE/OSEM), 2 iterations, and 16 subsets, correcting for singles and randoms but not attenuation. Images were generated with the software PMOD v3.8 (PMOD, Zurich, Switzerland). All radioactivities were decay-corrected to the time point of tracer injection.

[7] = test system: human costimulatory molecule CD80 (hCD80); design: method as in Taddio et al., in preparation; conditions: ref Taddio et al., in preparation; cited from earlier work
[8] = cited from earlier work
[9] = control, for [11C]AM7 CLH includes kBG × VPlasma, for [11C]MT107 kBG = 0
[10] = after cyclosporine 50 mg/kg i.v.
[11] = after cyclosporine 50 mg/kg i.v., 30 to 50 min before tracer
[12] = control, tracer i.v., 60 min PET scan
[13] = cyclosporine 50 mg/kg i.v. versus control

For `[11CH3]N1CCC(NC(=O)c2ccc(-n3[nH]c4c(nnc5c(F)cccc54)c3=O)cc2)CC1` [[^11C]AM7], the “unbound fraction in plasma (fu)” value [1] is given as 0.02, the “CLR, renal clearance” value ([2]; control) is given as 161 µL/min and 179 µL/min and the “DTissue, distribution coefficient between tissue and plasma at equilibrium” value (from here on “DTissue … at equilibrium”) ([2]; control) is given as 0.11 and 0.12. For the same compound, the “CLH, hepatobiliary clearance” value [2, 9] was 103 µL/min and 120 µL/min, the “radiometabolites in blood plasma” value [3] was “No radiometabolites were detected” and the “accumulation in hCD80-positive xenografts” value [4] was “negligible”. For the same compound, the “Vz, volume of distribution during the terminal phase” value (“Vz, volume” for short) [5, 10] was 8.0 mL, the “λ1 rate constant of biexponential function” value (“λ1 rate constant” below) [5, 10] was 0.204 min⁻¹ and the “λz rate constant of biexponential function” value (“λz rate constant” for short) [5, 10] was 0.0206 min⁻¹. The “V1, volume of the central compartment” value [5, 11] was 4.2 mL, the “Vz, volume” value ([5]; control) was 10.3 mL and 9.4 mL and the “λ1 rate constant” value ([5]; control) was 0.196 min⁻¹ and 0.295 min⁻¹. For the same compound, the “λz rate constant” value ([5]; control) was 0.0234 min⁻¹ and 0.0270 min⁻¹, the “V1, volume of the central compartment” value [5, 12] was 3.0 mL and 2.3 mL and the “radioactivity distribution in PET images” value [6] was “accumulated in the liver, gallbladder, intestines, and the urinary bladder”. The “change of radioactivity distribution in PET images” value [6] was “increased in kidneys and peripheral tissue and reduced in liver, gallbladder, and intestines”, the “affinity to hCD80” value [7] was “low nanomolar range” and the “logD (pH 7.4)” value [8] was 0.1.

In the case of `[11CH3]N1CCC(NC(=O)c2ccc(-n3[nH]c4c(c(-c5cccc(C(F)(F)F)c5)nc5c(F)cccc54)c3=O)cc2)CC1` [[^11C]MT107], the “kGH1, rate constant of reabsorption from intestines into liver compartment H1” value ([2]; absence of cyclosporine) is reported as 0.0077 ± 0.0033 min⁻¹, the “CLR, renal clearance” value [2, 10] is reported as 19.9 ± 5.1 µL/min and the “DTissue … at equilibrium” value [2, 10] is reported as 0.14 ± 0.03. The “CLH, hepatobiliary clearance” value ([2]; after cyclosporine 50 mg/kg i.v., kBG = 0) was 17.1 ± 5.6 µl/min and 17.1 ± 5.6^∗b µl/min, the average CLH when kBG was fitted ([2]; after cyclosporine administration) was 9.3 ± 4.2 µL/min and the “increase of CLR after cyclosporine administration” value ([2]; average, not significant (p = 0.069)) was 1.7 fold. For the same compound, the “CLR, renal clearance” value ([2]; control) was 11.9 ± 5.3 µL/min, the “DTissue … at equilibrium” value ([2]; control) was 0.10 ± 0.02 and the “EH, extraction ratio for liver (CLH/QP,H)” value ([2]; control) was 0.035 ± 0.011. For the same compound, the “total CL from modelling lower than from biexponential fit of CPlasma(t)” value ([2]; control group) was 16%, the “VTissue, volume of the peripheral tissue estimated during fitting” value ([2]; control scans) was 0.74 ± 0.08 cm^3 per g BW and the “CLH, hepatobiliary clearance” value [2, 9] was 35.2 ± 10.9 µL/min. For the same compound, the average CLH when kBG was fitted ([2]; control) was 25.4 ± 6 µL/min, the calculated transintestinal clearance ([2]; control) was 10.5 ± 11.3 µL/min and the “CLH after cyclosporine relative to value in the absence of cyclosporine” value [2, 13] was 48%. The “EH after cyclosporine relative to value in the absence of cyclosporine” value [2, 13] was 48%, the “total CL from modelling lower than from biexponential fit of CPlasma(t)” value ([2]; cyclosporine group) was 17% and the calculated transintestinal clearance ([2]; cyclosporine group) was 7.8 ± 4.1 µL/min. The “increase of average DTissue after cyclosporine administration (factor)” value ([2]; not significant (p = 0.078)) was 1.34, the “kGH1, rate constant of reabsorption from intestines into liver compartment H1” value ([2]; presence of cyclosporine) was 0.0080 ± 0.0038 min⁻¹ and the “VTissue, volume of the peripheral tissue estimated during fitting” value ([2]; scans after cyclosporine treatment) was 0.79 ± 0.10 cm^3/g. For the same compound, the “Vz, volume” value [5, 10] was 3.33 ± 0.80 mL, the “λ1 rate constant” value [5, 10] was 0.139 ± 0.021 min⁻¹ and the “λz rate constant” value [5, 10] was 0.0140 ± 0.0034^∗∗b 1/min. For the same compound, the “V1, volume of the central compartment” value [5, 11] was 1.38 ± 0.11 mL, the “Vz, volume” value ([5]; control) was 2.66 ± 0.51 mL and the “λ1 rate constant” value ([5]; control) was 0.121 ± 0.011 min⁻¹. The “λz rate constant” value ([5]; control) was 0.0210 ± 0.0011 min⁻¹, the “V1, volume of the central compartment” value [5, 12] was 1.49 ± 0.19 mL and the “increase of Vz after cyclosporine administration” value ([5]; not significant (p = 0.21)) was 1.25 fold. The “radioactivity distribution in PET images” value [6] was “higher tissue radioactivity compared to [^11C]AM7 but still high abdominal radioactivity accumulation”, the “change of radioactivity distribution in PET images” value [6] was “increased radioactivity uptake in the kidneys and peripheral tissue and reduction in the liver” and the “affinity to hCD80” value [7] was “low nanomolar range”. For the same compound, the “logD (pH 7.4)” value ([8]; ref Taddio et al., in preparation) was 2.0.
